# Measurements from publication PMC10572522, “A Designed Analog of an Antimicrobial Peptide, Crabrolin, Exhibits Enhanced Anti-Proliferative and In Vivo Antimicrobial Activity” (International Journal of Molecular Sciences, 2023).
# Residues, ends and D or L forms follow the SMILES beside them.
# Legend:
# [1] = test system: K. pneumoniae (ATCC 43816) biofilm; format: cell-based, Klebsiella pneumoniae; conditions: for MBIC: biofilm inhibitory rate more than 90%; for MBEC: eradication rate greater than 99.9%
# Experimental: (§1) To measure the antibiofilm activity of crabrolin and its derivatives, four drug-resistant biofilm-forming strains, MRSA (NCTC 12493), K. pneumoniae (ATCC 43816), E. faecium (NTCC-12697), and P. aeruginosa (ATCC 9027), were used in this assay. Tryptic soy broth (TSB) (for the Gram-positive bacteria) and Luria–Bertani broth (LB) (for the Gram-negative bacteria) were used to culture the bacteria.
# (§2) The mass of the biofilm in this assay was detected by the crystal violet staining method. First, 100 μL of 5 × 10^5 CFU/mL bacteria was incubated with 1 μL of different peptide solutions (ranging from 51200 μM to 100 μM) for 24 h at 37 °C with 200 rpm shaking. After the biofilm formation, 100 μL of PBS was used to rinse the biofilm twice. Next, 100 µL of methanol was added to fix the biofilm, and the biofilm was then dried. Thereafter, 100 μL of 0.1% crystal violet was added and left to stain for 15 min, and then the excess crystal violet was further rinsed by PBS. After the plate had air-dried, 30% glacial acetic acid was added to each well of the plate, and the plate was shaken for 15 min before the optical density (OD) value was measured at 595 nm using a Synergy HT plate reader. The MBIC value refers to the minimum concentration at which the biofilm inhibitory rate was more than 90%.
# (§3) Different from measuring the MBIC value, to determine the MBEC value, 100 μL of the bacteria was first added to 96-well plates. After the biofilm was formed, the biofilm was rinsed with PBS twice to remove the planktonic cells, and then different concentrations of the drugs were added to the biofilm (the same as the MBIC assay). The mixture was incubated at 37 °C with shaking at 200 rpm. After 24 h of incubation, the mass of the biofilm was measured in the same way as the MBIC value, and the minimum concentration at which the eradication rate was greater than 99.9% was considered to be the MBEC value.
# [2] = test system: MRSA (NCTC 12493) biofilm; format: cell-based, methicillin-resistant Staphylococcus aureus; conditions: for MBIC: biofilm inhibitory rate more than 90%; for MBEC: eradication rate greater than 99.9%
# Experimental: as §1, §2, §3
# MRSA (NCTC 12493) = assay: Antimicrobial susceptibility assay (MIC/MBC); format: cell-based, methicillin-resistant Staphylococcus aureus; conditions: for MIC: MHB, 37 °C, 20 h
# Experimental: (§4) Six bacteria were tested in this experiment to detect the antimicrobial effects of crabrolin and its derivatives, including S. aureus (NCTC 10788), MRSA (NCTC 12493), E. coli (ATCC 8739), K. pneumoniae (ATCC 43816), E. faecium (NTCC-12697), and P. aeruginosa (ATCC 9027). The tested bacteria were cultured in Mueller Hinton broth medium (MHB) with norfloxacin (20 mg/L) as a positive control. All bacteria were incubated at 37 °C overnight and diluted to 5 × 10^5 CFU/mL before treating with the peptides. Stock solutions of 51,200 µM peptides were prepared in phosphate-buffered saline (PBS) and further diluted by a factor of two to 100 µM. Next, 1 µL of each peptide solution was mixed with 99 µL of bacterial subculture in a 96-well plate, and the plate was incubated at 37 °C for 20 h. After culturing, the absorbance of each well in the 96-well plate was analyzed at 550 nm using a Synergy HT plate reader (BioliseBioTek, Winooski, VT, USA). […] Starting with the MIC value, 10 µL of the solution from each well was dripped onto Mueller Hinton agar (MHA) plates. The plates were cultured at 37 °C for 20 h. After culturing, the lowest concentration with no colony growth was regarded as the MBC.
# [3] = test system: K. pneumoniae (ATCC 43816); assay: Antimicrobial susceptibility assay (MIC/MBC); format: cell-based, Klebsiella pneumoniae; conditions: for MIC: MHB, 37 °C, 20 h
# Experimental: as §4
# [4] = test system: P. aeruginosa (ATCC 9027) biofilm; format: cell-based, Pseudomonas aeruginosa; conditions: for MBIC: biofilm inhibitory rate more than 90%; for MBEC: eradication rate greater than 99.9%
# Experimental: as §1, §2, §3
# E. faecium (NTCC 12697) = assay: Antimicrobial susceptibility assay (MIC/MBC); format: cell-based, Enterococcus faecium; conditions: for MIC: MHB, 37 °C, 20 h
# Experimental: as §4
# [5] = test system: E. faecium (NTCC12697) biofilm; format: cell-based, Enterococcus faecium; conditions: for MBIC: biofilm inhibitory rate more than 90%; for MBEC: eradication rate greater than 99.9%
# Experimental: as §1, §2, §3
# S. aureus (NCTC 10788) = assay: Antimicrobial susceptibility assay (MIC/MBC); format: cell-based, Staphylococcus aureus; conditions: for MIC: MHB, 37 °C, 20 h
# Experimental: as §4
# [6] = test system: P. aeruginosa (ATCC 9027); assay: Antimicrobial susceptibility assay (MIC/MBC); format: cell-based, Pseudomonas aeruginosa; conditions: for MIC: MHB, 37 °C, 20 h
# Experimental: as §4
# [7] = test system: human prostate carcinoma cell line PC-3; assay: Anti-proliferative assay (MTT); format: cell-based; conditions: PC3, MTT, 24 h
# Experimental: (§5) The human non-small-cell lung cancer line, H838, the human prostate carcinoma cell line, PC-3, the human glioblastoma astrocytoma, U251MG, the human breast cancer cell line, MCF-7, the human colorectal carcinoma cell line, HCT116, and the human keratinocyte cell line, HaCaT, were used to detect the anti-proliferative effects of the crabrolin and its derivatives in vitro. A total of 8000 cells were seeded in each well of a 96-well plate. After the cells had adhered to the wall, the cells were starved for 4 h. After the starvation, the cells were incubated with different concentrations of the drugs, ranging from 100 µM to 1 nM, for 24 h, with 0.1% Triton X-100 used as a positive control. Next, 10 µL of MTT (3-(4,5-dimethylthiazol-2-yl)-2,5-diphenyltetrazolium bromide) solution (5 mg/mL) was added to each well of the 96-well plate. After 2 h of incubation, 100 μL of DMSO-superseded medium was added to each well to dissolve the formazan crystals. Finally, the absorbance was detected using a Synergy HT plate reader at 570 nm.
# [8] = test system: human colorectal carcinoma cell line HCT-116; assay: Anti-proliferative assay (MTT); format: cell-based; conditions: HCT-116, MTT, 24 h
# Experimental: as §5
# [9] = test system: human breast cancer cell line MCF-7; assay: Anti-proliferative assay (MTT); format: cell-based; conditions: MCF-7, MTT, 24 h
# Experimental: as §5
# [10] = test system: human glioblastoma astrocytoma U251MG; assay: Anti-proliferative assay (MTT); format: cell-based; conditions: 24 h
# Experimental: as §5
# [11] = test system: human non-small-cell lung cancer line H838; assay: Anti-proliferative assay (MTT); format: cell-based; conditions: 24 h
# Experimental: as §5
# [12] = test system: human keratinocyte cell line HaCaT; assay: Anti-proliferative assay (MTT); format: cell-based; conditions: HaCaT (normal keratinocytes), 24 h
# Experimental: as §5
# E. coli (ATCC 8739) = assay: Antimicrobial susceptibility assay (MIC/MBC); format: cell-based, Escherichia coli; conditions: for MIC: MHB, 37 °C, 20 h
# Experimental: as §4
# horse erythrocytes = assay: Hemolysis assay; format: cell-based; conditions: erythrocytes, 37 °C, 2 h
# Experimental: (§6) According to the procedures described in detail in a previous study, the debris and impurities of the erythrocytes were washed with PBS in advance to yield 2% of the erythrocyte suspension, and the drug concentration was diluted from 1024 µM to 2 µM with PBS [53]. The same amounts of the drug and the erythrocyte suspension were mixed and cultured at 37 °C for 2 h; 0.1% Triton X-100 (Sigma-Aldrich, St. Louis, MO, USA) was prepared as a positive control, and PBS was prepared as a negative control. After the incubation, the supernatant was transferred to a 96-well plate and then detected using a Synergy HT plate reader at 570 nm.
# Hemolysis assay = format: cell-based, horse; conditions: horse, erythrocytes (2% suspension); at the peptide's maximum MIC; relative to Triton X-100; read-out: Hemolysis under the Maximum MIC
# Experimental: as §6
Compound,MBIC [1] [µM],MBEC [1] [µM],MBIC [2] [µM],MBEC [2] [µM],MBC (MRSA (NCTC 12493)) [µM],MIC (MRSA (NCTC 12493)) [µM],MBC [3] [µM],MIC [3] [µM],MBIC [4] [µM],MBEC [4] [µM],MBC (E. faecium (NTCC 12697)) [µM],MIC (E. faecium (NTCC 12697)) [µM],MBIC [5] [µM],MBEC [5] [µM],MBC (S. aureus (NCTC 10788)) [µM],MIC (S. aureus (NCTC 10788)) [µM],MBC [6] [µM],MIC [6] [µM],IC50 [7] [µM],IC50 [8] [µM],also measured
"CC[C@H](C)[C@H](NC(=O)[C@H](CCCNC(=N)N)NC(=O)[C@@H]1CCCN1C(=O)[C@H](CC(C)C)NC(=O)[C@@H](N)CCCNC(=N)N)C(=O)N[C@@H](CC(C)C)C(=O)N[C@@H](CCCNC(=N)N)C(=O)N[C@@H](CCCCN)C(=O)N[C@H](C(=O)N[C@H](C(=O)N[C@@H](CCCNC(=N)N)C(=O)N[C@@H](CCCNC(=N)N)C(=O)N[C@@H](CC(C)C)C(N)=O)C(C)C)[C@@H](C)CC [Crabrolin-AR, RLPRILRKIVRRL-NH2] (H-RLPRILRKIVRRL-NH2)",8,> 512,8,512,8,4,16,8,16,> 512,32,16,64,> 512,8,4,16,4,28.8,29.9,IC50 [9]: 32.5 µM; IC50 [10]: 52 µM; IC50 [11]: 41.3 µM; IC50 [12]: 34.9 µM; MBC (E. coli (ATCC 8739)): 4 µM; MIC (E. coli (ATCC 8739)): 2 µM; HC10 (10% hemolytic concentration) (horse erythrocytes): 59.049 µM; hemolysis at 2 h (Hemolysis assay): 6.63%
"CC[C@H](C)[C@H](NC(=O)[C@H](CCCNC(=N)N)NC(=O)[C@@H]1CCCN1C(=O)[C@H](CC(C)C)NC(=O)[C@@H](N)CCCNC(=N)N)C(=O)N[C@@H](CC(C)C)C(=O)N[C@@H](CCCNC(=N)N)C(=O)N[C@@H](CCCCN)C(=O)N[C@H](C(=O)N[C@H](C(=O)N[C@@H](CCCNC(=N)N)C(=O)N[C@@H](C)C(=O)N[C@@H](CC(C)C)C(N)=O)C(C)C)[C@@H](C)CC [Crabrolin-FR, RLPRILRKIVRAL-NH2] (H-RLPRILRKIVRAL-NH2)",8,512,8,256,4,4,16,8,8,> 512,16,8,32,> 512,2,2,16,4,15.9,30.3,IC50 [9]: 33.9 µM; IC50 [10]: 62.2 µM; IC50 [11]: 31.5 µM; IC50 [12]: 30.4 µM; MBC (E. coli (ATCC 8739)): 4 µM; MIC (E. coli (ATCC 8739)): 2 µM; HC10 (10% hemolytic concentration) (horse erythrocytes): 18.082 µM; hemolysis at 2 h (Hemolysis assay): 5.67%
